From publication PMC5342726, “Identification of small molecule inhibitors of ERCC1-XPF that inhibit DNA repair and potentiate cisplatin efficacy in cancer cells” (Oncotarget, 2016)
Like-named read-outs stand apart in the source and are kept apart here.

Target: T1, ERCC1-XPF (Homo sapiens, UniProt P07992+Q92889)
T1 construct: made in house; host or cells: Sf9 insect cells, baculovirus (obtained from Aziz Sancar)
T1 sequence (Q92889 1-916): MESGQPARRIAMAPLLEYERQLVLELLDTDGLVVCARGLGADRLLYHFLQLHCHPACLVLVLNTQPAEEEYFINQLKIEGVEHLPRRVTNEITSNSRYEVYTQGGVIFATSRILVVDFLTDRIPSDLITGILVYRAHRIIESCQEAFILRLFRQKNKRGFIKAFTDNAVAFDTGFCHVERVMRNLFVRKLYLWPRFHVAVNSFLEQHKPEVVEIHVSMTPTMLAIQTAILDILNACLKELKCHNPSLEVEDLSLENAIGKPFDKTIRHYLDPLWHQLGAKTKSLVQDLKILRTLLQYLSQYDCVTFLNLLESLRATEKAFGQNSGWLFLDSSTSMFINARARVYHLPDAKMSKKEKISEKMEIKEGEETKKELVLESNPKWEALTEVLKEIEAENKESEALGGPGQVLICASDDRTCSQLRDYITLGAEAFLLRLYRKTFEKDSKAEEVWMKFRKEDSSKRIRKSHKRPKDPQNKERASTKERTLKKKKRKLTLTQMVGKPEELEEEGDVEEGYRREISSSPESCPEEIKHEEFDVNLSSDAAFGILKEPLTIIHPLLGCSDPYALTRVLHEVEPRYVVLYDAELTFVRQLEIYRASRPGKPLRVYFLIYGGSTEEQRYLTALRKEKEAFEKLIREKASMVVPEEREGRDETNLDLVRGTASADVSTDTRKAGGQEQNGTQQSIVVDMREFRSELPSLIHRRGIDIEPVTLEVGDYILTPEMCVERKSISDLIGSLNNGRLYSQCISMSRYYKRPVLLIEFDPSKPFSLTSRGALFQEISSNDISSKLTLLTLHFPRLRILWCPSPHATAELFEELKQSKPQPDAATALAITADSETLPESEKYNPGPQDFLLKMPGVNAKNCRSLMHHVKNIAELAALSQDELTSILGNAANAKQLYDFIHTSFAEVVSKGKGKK
T1 sequence (P07992 1-297): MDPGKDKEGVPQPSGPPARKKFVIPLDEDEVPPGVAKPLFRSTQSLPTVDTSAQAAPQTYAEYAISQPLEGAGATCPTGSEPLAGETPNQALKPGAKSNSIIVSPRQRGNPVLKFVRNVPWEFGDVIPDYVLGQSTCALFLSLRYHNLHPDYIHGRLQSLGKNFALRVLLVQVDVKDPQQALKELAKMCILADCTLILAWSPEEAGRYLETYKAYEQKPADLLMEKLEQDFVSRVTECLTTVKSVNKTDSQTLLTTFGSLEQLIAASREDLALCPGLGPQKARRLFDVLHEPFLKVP
Assay: HTS fluorescence assay of ERCC1-XPF endonuclease activity
Assay type: biochemical
Excerpt: To screen for ERCC1-XPF inhibition, an existing in vitro assay was optimized to a 96-well plate format to allow for screening of compound libraries (NCI-DTP diversity set). These compounds and subsequent vialed compounds were from the Drug Synthesis and Chemistry Branch, Developmental Therapeutics Program, Division of Cancer Treatment and Diagnosis at the National Cancer Institute. We used purified ERCC1-XPF (Supplementary Figure S1) and describe the purification procedure in Supplementary Information. The initial cuvette-based assay was optimized for DNA, MgCl2 concentrations as well as the incubation time to be used in the fluorescence assay in a 96 well plate format (Supplementary Figure S2). The assay consists of a 10 nM DNA (Q+Fl substrate annealed, described below) and 7.5 nM ERCC1-XPF protein in buffer containing 50 mM Tris-HCl pH8.0, 2 mM MgCl2, 0.1 mM BSA, and 0.5 mM β-mercaptoethanol. For preliminary screening, 150 μL of DNA was added to each well and the fluorescence signal was measured at 525 nm following excitation at 485 nm. Compounds or controls were then added to individual wells for a total of 80 compounds on each plate and the fluorescent signal was re-measured. We initially ran the screen using 50 μM compound and then repeated using 10 μM compound. 16 controls were used per plate, which consisted of buffer alone, DNA alone, ERCC1-XPF alone, 10 nM fluorescein ssDNA (positive signal), and 10 nM Q-Fl DNA with 7.5 nM ERCC1-XPF (positive signal). 7.5 nM ERCC1-XPF was added to each well containing the compounds and DNA and incubated for 30 minutes at 37°C after which the fluorescent signal was measured again.
The synthetic DNA substrate mimics a native forked ssDNA-dsDNA substrate of ERCC1-XPF (Figure 1A). This forked DNA substrate has a dsDNA region (14 bases) and a region containing two ssDNA flaps (12 bases each). One 26-mer DNA oligonucleotide contains a site-specific fluorescein modification at the indicated position (Fl Oligo: 5' - GCCAGCGCTCGGAT(AminoC6dT)(FLSN) TTTTTTTTTTT). The semi-complementary strand was synthesized containing a DABCYL quencher (Q) molecule at the depicted position (Q Oligo: 5' - TTTTTTTTTTT (AminoC6dT)(Dabcyl) ATCCGAGCGCTGGC; Figure 1A). The fluorescein (*) molecule has an excitation peak centered at 485 nm and an emission peak centered at 525 nm. The quencher (Q) molecule is able to quench the fluorescence signal of the fluorescein when it is in close proximity. The design of the semi-duplex DNA substrate is such that the fluorescein and DABCYL quencher are directly opposite one another at the double-stranded and single-stranded DNA junction (Figure 1A). […] Upon cleavage by ERCC1-XPF, (~4-5 bases from the dsDNA-ssDNA) the fluorescein label on the cleaved DNA is released into solution and results in a significant increase in fluorescence as the quencher is no longer in close proximity. The DNA substrate is also incorporated with a restriction enzyme site (HhaI) within the duplex DNA that results in a cleavage pattern similar to ERCC1-XPF. This serves as a positive control and allows assessment of ERCC1-XPF cleavage product. This DNA substrate is used in the solution based fluorescence screening assay to screen for inhibitors of ERCC1-XPF endonuclease activity. In the 96 well platform, the Z factor was calculated to be ~0.87 indicating a highly robust assay and highly suitable for a HTS. A Molecular Devices Spectramax M5 plate reader was used for fluorescence detection. The DNA substrate was the same for gel-based assays besides the fluorescent/quencher modifications and 5'-labeling using γ-ATP^32. For the secondary screen, the reaction was setup in a tube with 10 nM DNA, 7.5 nM XPF-ERCC1, 20 U/ml of HhaI, or 7.5 nM XPG (Supplementary Figure S3A) in nuclease reaction buffer with compound titration and incubated at 37°C for 30 minutes. The reaction was stopped by chelating the metal in the buffer and read in the Spectramax M5 plate reader.

[1] = IC50s calculated by CompuSyn, SD from 3 plots, read-out: ERCC1-XPF IC50

Row | Structure (SMILES) | IC50 [1] [µM] | IC50 (read-out: 50% inhibition of ERCC1-XPF) [µM]
1 | Cc1ccc(S(=O)(=O)Oc2cc(S(=O)(=O)O)cc3cc(S(=O)(=O)O)cc(N)c23)cc1 [NSC16168] | 0.42 ± 0.112 | –
2 | Oc1cc(O)c2c(c1)OC(c1ccc(O)c(O)c1)C(O)C2c1c(O)cc(O)c2c1OC(c1ccc(O)c(O)c1)C(O)C2 (stereo not drawn) [NSC143099] | 0.022 ± 0.003 | ~0.022
